Reference: EP0338042B1, “COMPOSITION AND METHOD FOR TREATING HEPATITIS VIRUS INFECTIONS USING 1-(2'-DEOXY-2'-FLUORO-BETA-D-ARABINOFURANOSYL)-5-ETHYLURACIL” (priority 1987, dated 1989)

Tests used:
[1] = system: VERO; test: Incorporation of 2-14C-labeled nucleoside into DNA of cells; assay type: cell-based, African green monkey; conditions: FEAU also not detectable at 100 μM
Excerpt: (§1) There was no detectable incorporation of FEAU radioactivity into the DNA of either L-1210 or Vero cell lines, but substantial amounts of FMAU radioactivity were incorporated into the DNA of both cell lines. When HSV-1 infected Vero cells were exposed to ¹⁴C-labeled FEAU and FMAU, both nucleosides incorporated into the DNA of these virus-infected cells.

[2] = system: HSV-1 INFECTED VERO CELLS; test: as above; assay type: cell-based, African green monkey
Excerpt: as §1

[3] = in vivo experiments with mice; cited from earlier work
[4] = system: woodchuck hepatitis virus (WHV); test: Inhibition of WHV replication in chronically infected woodchucks (DNA polymerase activity); assay type: in vivo, woodchucks (Marmota monax)
Protocol: All woodchucks bearing chronic active hepatitis virus (Hantz, supra) were administered FMAU twice daily by interperitoneal injections of FMAU in the following dosages:
Studies were then undertaken to evaluate FMAU and FEAU in this animal model using woodchucks naturally chronically-infected with woodchuck hepatitis virus (24). It was assumed that these nucleosides would be anabolized to their nucleoside triphosphates within the animal. WHV replication was measured periodically by the endogenous DNA polymerase activity and by the detection of WHV DNA by the dot-blot hybridization assay. Three different dosages of FMAU and FEAU were investigated. FMAU at 2 mg/kg/day x 5, (given intraperitoneally TABLE VIII
In accordance with the procedures of Example 2, the FEAU inhibition of WHV replication was further studied at different doses administered orally to woodchucks through stomach tubes. Two groups of woodchucks with different initial WHV replication values were examined.
Seven woodchucks with high WHV replication were tested. High replication was defined as over 1000 counts per minute of DNA polymerase activity, and the mean replication was 1600.
Seven woodchucks with low WHV replication were tested. Low replication was defined as lower than 1000 counts per minute of DNA polymerase activity, and the mean replication was 600-800.

[5] = system: simian varicella virus (SVV); test: Simian varicella virus infection in the African green monkey
[6] = Toxicity in dogs
[7] = system: HL-60 CELLS; test: Inhibition of cell growth; assay type: cell-based; conditions: Homo sapiens, HL-60; read-out: ED50 FOR INHIBITING CELL GROWTH IN HL-60 CELLS
[8] = system: HSV-2 (STRAIN G); conditions: FMAU 0.5 MG/KG/DAY, cited from earlier work
[9] = system: RAT BONE MARROW CELLS; test: Inhibition of thymidine incorporation into DNA; assay type: cell-based; conditions: Bone marrow cell, read-out: ED50 FOR INHIBITING THYMIDINE INCORPORATION INTO DNA, RAT BONE MARROW CELLS
[10] = system: HSV-2(G); conditions: plaque reduction in Vero cells, cited from earlier work
[11] = patients with advanced cancer, x 5; cited from earlier work
[12] = system: P-815 CELLS; test: Inhibition of thymidine incorporation into DNA; assay type: cell-based, rodent; conditions: Mus musculus, P815; read-out: ED50 FOR INHIBITING THYMIDINE INCORPORATION INTO DNA, P-815 CELLS
[13] = system: HSV-2(G); test: Plaque reduction assay in Vero cells; assay type: cell-based; conditions: monkey
Excerpt: (§2) With FMAU as a lead compound, the syntheses of other 5-alkyl substituted 2′-fluoro-ara-uracils were undertaken (8, 9), including 1-(2′-deoxy-2′-fluoro-beta-D-arabinofuranosyl)-5-ethyluracil [FEAU].

[14] = system: HSV-1(F); test: Plaque reduction assay in Vero cells; assay type: cell-based; conditions: monkey
Excerpt: as §2

[15] = system: Vero cells; test: Inhibition of cell growth; assay type: cell-based, African green monkey; conditions: Chlorocebus sabaeus, read-out: ED50 FOR INHIBITING CELL GROWTH IN VERO CELLS
[16] = system: L-1210 CELLS; test: Inhibition of thymidine incorporation into DNA; assay type: cell-based, rodent; conditions: Mus musculus, L1210; read-out: ED50 FOR INHIBITING THYMIDINE INCORPORATION INTO DNA, L-1210 CELLS
[17] = system: HSV-1(F); conditions: plaque reduction in Vero cells, cited from earlier work
[18] = system: L-1210; test: Incorporation of 2-14C-labeled nucleoside into DNA of cells; assay type: cell-based, rodent; conditions: FEAU also not detectable at 100 μM
Excerpt: as §1

[19] = 0.2 mg/kg/day, FMAU x 5, FEAU x 10

Q: Which results are given for `Cc1cn([C@@H]2O[C@H](CO)[C@@H](O)[C@@H]2F)c(=O)[nH]c1=O` [FMAU, 1-(2'-deoxy-2'-fluoro-beta-D-arabinofuranosyl)-5-methyluracil, reference compound]?
A: INCORPORATION INTO DNA AT 10μM, VERO [1]: 1.3 p MOLE/10^6 CELLS/HR; incorporation into HSV-1-infected Vero cells compared with FEAU [2]: seven-fold greater; INCORPORATION INTO DNA AT 10μM, HSV-1 INFECTED VERO CELLS ([2]; [2-14C] labeled nucleoside): 3.4 p MOLE/10^6 CELLS/HR; toxicity [3]: relatively nontoxic; suppression of viral replication [4, 19]: equally effective; toxicity [4, 19]: less severe and delayed toxicity; WHV DNA polymerase activity ([4]; 2 mg/kg/day x 5, intraperitoneally): complete suppression; toxicity ([4]; 2 mg/kg/day x 5, intraperitoneally, eventually lethal): severe CNS toxicity; persistence of inhibition of WHV replication after cessation of treatment ([4]; i.p. 2 mg/kg per day for 7 days or 4 mg/kg per day for 5 days): 20 to 50 days; woodchuck hepatitis virus DNA polymerase ([4]; i.p. twice daily, 2 mg/kg per day for 7 days or 4 mg/kg per day for 5 days, end of one week following dosage administrations): fallen to background levels; toxicity (previous results) ([4]; woodchucks, previous results): lethal toxicity; minimal effective dose ([5]; Cercopithecine alphaherpesvirus 9, in Primates): ~0.04 mg/kg/day; potency against SVV compared with FEAU ([5]; monkey, in vivo): about 40 fold; neurotoxicity [6]: very neurotoxic; lethal dose ([6]; FMAU i.v. x 5, FEAU x 10 (preliminary)): 2.5 mg/kg/day; EC50 [7]: 15.4 µM; MDD ([8]; twice a day for 4 days from 5 hr after inoculation, calculated on day 21): 9.4; % SURVIVORS ([8]; twice a day for 4 days): 67%; %WT GAIN ON DAY 7 ([8]; compared to day 1): 1%; %WT GAIN ON DAY 14 ([8]; compared to day 1): 4%; %WT GAIN ON DAY 21 ([8]; compared to day 1): 5%; %WT GAIN ON DAY 30 ([8]; compared to day 1): 7%; EC50 [9]: 8.9 µM; EC50 ([10]; read-out: HSV-2(G) ED₅₀): 23 nM; EC90 ([10]; read-out: HSV-2(G) ED₉₀): 90 nM; intravenous dose with dose-limiting CNS toxicity [11]: 0.8 mg/kg/day; EC50 [12]: 14 µM; THER. INDEX ID₅₀/ED₉₀ HSV-2 [13]: 31; THER. INDEX ID₅₀/ED₉₀ HSV-1 [14]: 67; EC50 [15]: 2800 nM; EC50 [16]: 28 µM; EC50 ([17]; read-out: HSV-1(F) ED₅₀): 10 nM; EC90 ([17]; read-out: HSV-1(F) ED₉₀): 42 nM; INCORPORATION INTO DNA AT 10μM, L-1210 [18]: 0.69 p MOLE/10^6 CELLS/HR
